Data set [1] has as its target ACCase enzyme extracted from oat seedlings (Avena sativa, UniProt A0ACD5YD93). Briefly: Non-human ACCase assay (malachite green phosphate detection). Type of data set: biochemical. The following applies: comparative compounds, Table V.2; read-out: ACC-non human IC50. The procedure: The assay was carried out at room temperature in a transparent 384-well microtitre plate. It determined the inorganic phosphate released from the ATP in the ACCase reaction.
The test mixture contained 50 mM Tris-HCl pH 8.3, 50 mM KCl, 2.5 mM MgCl2, 0.5 mM ATP, 0.8 mM dithiothreitol (DTT), 30 mM NaHCO3, 0.1 mM acetyl-CoA, 0.04% bovine serum albumin and 0.4 μg partially purified ACCase enzyme in a final volume of 40 μl. After 45 minutes of incubation, the reaction was stopped with 150 μl of malachite green solution, and the absorption at […] was read after 30 minutes.
The malachite green (MG) solution was prepared by mixing 3 parts of 0.6 mM MG-HCl solution in distilled water with 1 part of 8.5 mM ammonium molybdate in 4 M HCl. The solution was allowed to stand for 30 minutes. After filtration through a 0.45 μm polytetrafluoroethylene (PTFE) filter, 0.1 part of Triton X-100 (1.5%) in distilled water was added.
ACCase enzyme was extracted from oat seedlings 9 days after sowing and partially purified by precipitation with 0-40% ammonium sulphate followed by ion exchange chromatography on Q-Sepharose.

Data set [2] addresses T1, human ACC1 (acetyl-coenzyme A carboxylase alpha transcript variant 1) (Homo sapiens, UniProt Q13085).
T1 construct: FLAG (C); made in house; host or cells: baculovirus-infected insect cells (Hi5)
Briefly: Human ACC1 enzyme assay, Assay B1 (ADP-Glo). Type of data set: biochemical. (ADP-Glo turns the ADP formed in a reaction into a luminescent signal.)
Description: Essentially, the enzyme activity is measured by quantifying the adenosine diphosphate (ADP) formed as a byproduct of the enzyme reactions using the ADP-Glo™ detection system from Promega. In this test, initially the adenosine triphosphate (ATP) not consumed in the enzyme reaction is converted quantitatively with an adenylate cyclase (“ADP-GLO reagent”) into cAMP, the adenylate cyclase is then stopped and (“kinase detection reagent”) the ADP formed is subsequently converted into ATP, which is converted in a luciferase-based reaction into a glow luminescence signal.
The concentration of the hACC1 was adapted to the respective activity of the enzyme and adjusted such that the assay operated in the linear range. […] The amount of light emitted was taken as a measure for the amount of ADP formed and thus for the enzyme activity of the hACC1.

The test system of data set [3] is malonyl-CoA in a tumour (human MCF-7 breast cancer cells). Briefly: Mode-of-action experiment: intratumour malonyl-CoA in MCF-7 tumours after oral administration. Particulars: Mus musculus, MCF7, po; after 7 h, 10 mg/kg, vs Vehicle. It counts as in vivo, female nude mice (NMRI-nude (nu/nu)). The procedure: Mode-of-Action Experiment
Prior to the determination of the activity in the MCF-7 model, some of the test substances were examined in a “mode of action” experiment. The principle of this experiment is that short-term application of a test substance capable of inhibiting ACC1 and/or ACC2 in a living organism after oral administration reduces malonyl-CoA in a tumour. To this end, in the experiment 2 million human MCF-7 breast cancer cells were injected subcutaneously into female nude mice (NMRI-nude (nu/nu) mice, Taconic M&B A/S, 1 day beforehand administration of a pellet for the release of oestrogen over a period of at least 60 days). Once the tumour extended to an area of about 60-70 mm^2, the test substance was administered orally over a period of 1-3 days, and at defined points in time the intratumour content of malonyl-CoA was then determined and compared to the vehicle control. The method is described in Anal Chem 2008 Aug. 1; 80(15):5736-42. Epub 2008 Jul. 9.).

The test system of a further data set is MCF7. Briefly: Cell proliferation assay (CellTiter-Glo, 96 h), MCF7. It counts as cell-based. The following applies: Homo sapiens, MCF7; Table 7; 96-hour incubation. In short, it runs like this:
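Seeding: 2000-5000 cells/well; overnight, 37° C. Separate t=0 plate read. Compound diluted in growth medium, 96 h, 37° C. Readout: CellTiter-Glo luminescence, t=0 subtracted; % growth inhibition vs control.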
On the technique in general: ATP-based viability assays read luminescence as a measure of living cells.

Another data set concerns MDA-MB-436. Briefly: Cell proliferation assay (CellTiter-Glo, 96 h), MDA-MB-436. It counts as cell-based. The following applies: Homo sapiens, MDA-MB-436; 96-hour incubation. The procedure: (§1) In accordance with the invention, the substances were tested in cell-based assays for the ability of the substances of inhibiting tumour cell proliferation after a 96-hour incubation with the substance. Cell viability was tested using the CellTiter-Glo® luminescent cell viability assay (Promega). The cells were sown at a density of 2000-5000 cells/well (depending on the cell line) in 100 μl growth medium on 96-well microtitre plates. For each cell line examined, cells were sown on a separate plate to determine the luminescence at t=0 hours and t=96 hours. After overnight incubation at 37° C., the luminescence values for the t=0 samples were determined. The dose plates for the t=96 hours points in time were treated with substances diluted with growth medium. The cells were then incubated at 37° C. for 96 hours, and the luminescence values for the t=96 hours sample were then determined. For data analysis, the t=0 values were subtracted from the t=96 hour values for treated and untreated samples. The differences in luminescence in percent between substance-treated samples and control values were used to determine the growth inhibition in percent.
(§2) The substances were tested in the following cell lines which represent the stated indications in an exemplary manner: […]

The next data set concerns MDA-MB-468. In words: Cell proliferation assay (CellTiter-Glo, 96 h), MDA-MB-468. It counts as cell-based. The following applies: Homo sapiens, MDA-MB-468; 96-hour incubation. How it is done:
as §1, §2

For the next data set, the system named is HCC-1937. In words: Cell proliferation assay (CellTiter-Glo, 96 h), HCC-1937. The following applies: Homo sapiens, HCC1937; 96-hour incubation. It counts as cell-based. The procedure: as §1, §2
In another data set the test system is Miapaca. In words: Cell proliferation assay (CellTiter-Glo, 96 h), Miapaca. It counts as cell-based. Particulars: Homo sapiens, MIA PaCa-2; 96-hour incubation. The procedure:
as §1, §2

In the next data set the test system is A431. Briefly: Cell proliferation assay (CellTiter-Glo, 96 h), A431. It counts as cell-based. Particulars: Homo sapiens, A-431; 96-hour incubation. How it is done:
as §1, §2

Data set [4] concerns the target human ACC2 (acetyl-coenzyme A carboxylase 2) (Homo sapiens, UniProt O00763). In words: Human ACC2 enzyme assay, Assay B2 (ADP-Glo).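 Also: human ACC2 activity read as ADP product, detected by luciferase glow luminescence after residual ATP removal, enzyme near 2 ng/µl in linear range, detection steps at 22 °C.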
A further data set relates to PC3. Briefly: Cell proliferation assay (CellTiter-Glo, 96 h), PC3. Type of data set: cell-based. Particulars: Homo sapiens, PC-3; 96-hour incubation. The procedure:
as §1, §2

The subject of the next data set is Du145. Briefly: Cell proliferation assay (CellTiter-Glo, 96 h), Du145. It counts as cell-based. The following applies: Homo sapiens, DU-145; 96-hour incubation. How it is done: as §1, §2
The subject of another data set is ECC1. In words: Cell proliferation assay (CellTiter-Glo, 96 h), ECC1. It counts as cell-based. The following applies: Homo sapiens, ECC-1; 96-hour incubation. The procedure: as §1, §2
The test system of a further data set is KM12. Briefly: Cell proliferation assay (CellTiter-Glo, 96 h), KM12. It counts as cell-based. Particulars: Homo sapiens, 96-hour incubation. The procedure: as §1, §2
For the next data set, the system named is HEC1A. Briefly: Cell proliferation assay (CellTiter-Glo, 96 h), HEC1A. The following applies: Homo sapiens, HEC-1-A; 96-hour incubation. Type of data set: cell-based. The procedure: as §1, §2
The target of another data set is recombinant human ACC1 (Homo sapiens, UniProt Q13085). In words: Human ACC1 enzyme assay, Assay A1 (HTRF ADP immunoassay).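 Also: ADP generated by the enzyme quantified via competitive time-resolved FRET, read as europium cryptate to d2 energy transfer after 1 h at 22 °C with labelled ADP tracer and anti-ADP antibody.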
The target of data set [5] is acetyl-CoA carboxylase 2 (ACC2) (Homo sapiens, UniProt O00763). Briefly: Human ACC2 enzyme assay, Assay A2 (HTRF ADP immunoassay).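 Also: ADP generated by ACC2 quantified via competitive time-resolved FRET between europium cryptate anti-ADP antibody and d2-tagged ADP, enzyme kept in linear range near 0.6 ng/µl.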 In general terms: TR-FRET usually uses a lanthanide donor and a delayed reading to cut background.
Another data set relates to MDA-MB-435. Briefly: Cell proliferation assay (CellTiter-Glo, 96 h), MDA-MB-435. Particulars: Homo sapiens, 96-hour incubation. Type of data set: cell-based. How it is done:
as §1, §2

For another data set, the system named is 786 O. Briefly: Cell proliferation assay (CellTiter-Glo, 96 h), 786 O. Type of data set: cell-based. Particulars: Homo sapiens, 786-0; 96-hour incubation. How it is done: as §1, §2
For the next data set, the system named is PLC/PRF5. Briefly: Cell proliferation assay (CellTiter-Glo, 96 h), PLC/PRF5. Type of data set: cell-based. The following applies: Homo sapiens, PLC-PRF-5; 96-hour incubation. How it is done: as §1, §2
For the next data set, the system named is NCI-H2135. In words: Cell proliferation assay (CellTiter-Glo, 96 h), NCI-H2135. It counts as cell-based. The following applies: 96-hour incubation; read-out: NCLH 2135 IC50. The procedure:
as §1, §2

The test system of the next data set is DLD1. In words: Cell proliferation assay (CellTiter-Glo, 96 h), DLD1. Particulars: Homo sapiens, DLD-1; 96-hour incubation. Type of data set: cell-based. How it is done: as §1, §2
Data set [6] in a line: In-vitro dissolution of the pharmaceutical formulation (USP apparatus 2, paddle method). Type of data set: physicochemical. Particulars: pH 1 and pH 6.8 (reason for adding SDS). How it is done: c) In-Vitro Dissolution of the Pharmaceutical Formulation […] The release test was in each case carried out in 900 ml of various media at 37° C. and with a stirrer speed of 75 rotations per minute (FIG. 2). Each determination was carried out in three replications. The content was determined by HPLC.

The mark [7] stands for this setting: Assay B1, read-out: ACC 1 (=B1) IC50.

Read-outs that look alike come from different tables or passages of the source.

Description for recombinant human ACC1: The inhibitory activity of the substances of this invention with regard to acetyl-CoA carboxylase 1 (ACC1) was measured using the ACC1 assay described in the paragraphs below. The basic principle of the assay is the measurement of adenosine diphosphate (ADP), which is formed as a by-product, by means of an HTRF®-based competitive immunoassay (HTRF=Homogeneous Time Resolved Fluorescence).
Typical concentrations were in the range of 2.5 ng/μl.
The amount of complex between d2-labelled ADP and europium cryptate-labelled anti-ADP antibody was then determined by measuring the resonance energy transfer from the europium cryptate to d2.

With `COC1CCC2(CC1)NC(=O)C(c1c(C)cc(-c3ccc(Cl)cc3)cc1C)=C2O` (stereo not drawn) [V-2], the IC50 – broadly, the concentration that inhibits the measured activity by half – in [1] worked out at 40 nM.
Regarding `COCC1CCC2(CC1)NC(=O)C(c1cc(-c3ccc(Cl)cc3)ccc1C)=C2O` (stereo not drawn) [1-56, 3-(4′-chloro-4-methylbiphenyl-3-yl)-4-hydroxy-8-(methoxymethyl)-1-azaspiro[4.5]dec-3-en-2-one], the IC50 in data set [2] (setting [7]) was 202 nM; with MCF7, 30 nM; in the data set with MDA-MB-436, 84 nM; in the data set on MDA-MB-468, 138 nM; with HCC-1937 it was 171 nM; in the data set on Miapaca, 316 nM. The IC50 with A431 came to 214 nM; in [4], 672 nM. In addition, the inhibition in vivo (in general, the relative decrease from the control value, in per cent) at 10 mg/kg in [3] was determined as 84%.
Take `COC1CCC2(CC1)NC(=O)C(c1c(C)cc(OC(F)(F)F)cc1Cl)=C2O` (stereo not drawn) [V-3]: in data set [1], the IC50 was 2 nM.
On to `Cc1ccc(-c2ccc(F)c(F)c2)cc1C1=C(O)[C@]2(CC[C@H](C(F)(F)F)CC2)NC1=O` [1-128, (5s,8s)-3-(3′,4′-Difluoro-4-methylbiphenyl-3-yl)-4-hydroxy-8-(trifluoromethyl)-1-azaspiro[4.5]dec-3-en-2-one], for which the half-inhibitory concentration (IC50) in [2] (setting [7]) worked out at 157 nM; in the data set with MCF7, 33 nM; in the data set with PC3 it was 20 nM; with Du145, 29 nM; with ECC1 it was 137 nM; in the data set on KM12, 74 nM. Besides, the IC50 in the data set on HEC1A was found to be 328 nM; in data set [4] it was 4410 nM; at recombinant human ACC1 it was 195 nM; in [5] it was 2740 nM.
For `Cc1ccc(-c2ccc(Cl)cc2)cc1C1=C(O)C2(CCCCC2)NC1=O` [1-77, 3-(4′-chloro-4-methylbiphenyl-3-yl)-4-hydroxy-1-azaspiro[4.5]dec-3-en-2-one], the concentration for half-maximal inhibition (IC50) is 278 nM in data set [2]; 140 nM with MDA-MB-435; 404 nM in the data set with 786 O; 3890 nM with PLC/PRF5; 33 nM in the data set with NCI-H2135; 875 nM in the data set on DLD1. Moreover, the half-maximal inhibitory concentration (IC50) in the data set on PC3 was determined as 31 nM; in the data set with Du145 it was 51 nM; in the data set on ECC1, 257 nM; in the data set with KM12, 80 nM; in data set [4] it was 2590 nM. Also, testing at 10 mg/kg in [3] gave an inhibition in vivo of 96%.
For `CCc1cc(-c2ccccc2)cc(Cl)c1C1C(=O)N2CCOCCN2C1=O` [V-1], the half-maximal inhibitory concentration (IC50) in data set [1] was 0.5 nM.
With `CO[C@H]1CC[C@]2(CC1)NC(=O)C(c1cc(-c3ccc(Cl)c(F)c3)ccc1C)=C2O` [1-118, (5s,8s)-3-(4′-Chloro-3′-fluoro-4-methylbiphenyl-3-yl)-4-hydroxy-8-methoxy-1-azaspiro[4.5]dec-3-en-2-one], the IC50 was 102 nM in data set [2] (setting [7]); 37 nM with MCF7; 25 nM in the data set with PC3; 39 nM with Du145; 221 nM in the data set on ECC1; 275 nM with KM12. Also, the IC50 in the data set with HEC1A was 1760 nM; in [4], 1380 nM; on recombinant human ACC1, 129 nM; in data set [5], 690 nM. In addition, in [6], the “solubility in dissolution media” value is given as “insufficient solubility”.

The record behind these values is patent US20130040935A1, “CYCLIC KETO-ENOLS FOR THERAPY” (BAYER INTELLECTUAL PROPERTY GMBH, priority 2010, published 2013).
